Legend:
[1] = system: wild type cardiac myocytes; experiment: Intracellular superoxide (DHE) after H2O2 in cardiac myocytes; type: cell-based, mouse; details: 20 min incubation with 0.5-1 μM peptide; 30 μM H2O2 5 min; FIG. 3(b)
Method: Adult male C57BL/6J mice were anesthetized with pentobarbitone sodium (240 mg/kg) via intraperitoneal injection prior to excision of the heart. Ventricular myocytes were isolated. Mouse hearts were cannulated onto a Langendorff apparatus via the aorta and perfused retrogradely with Krebs-Henseleit Buffer (KHB) containing (in mM): 120 NaCl, 25 NaHCO3, 4.8 KCl, 2.2 MgSO4, 1.2 NaH2PO4 and 11 glucose (pH=7.35 with O2/CO2 at 37° C.) for 4 min at 37° C. Hearts were then perfused with KHB supplemented with 2.4 mg/ml collagenase B for 3 min, then 8 min perfusion in the presence of 40 μM calcium. Following perfusion, aorta and atria were removed, and ventricles gently teased apart and triturated to dissociate myocytes into suspension. […]
All in vitro studies were performed in freshly isolated myocytes at 37° C. […] Following a 20 min incubation with 0.5-1 μM AID(S)-TAT, AID-TAT, peptide 6 or peptide 7, fluorescent signal of individual myocytes was quantified using Metamorph 6.3 to measure signal intensity of manually traced cell regions. […]
Superoxide generation was assessed in cardiac myocytes using the fluorescent indicator dihydroethidium (DHE, 5 μM, 515-560 nm ex filter, 590 long pass em, Merck). […] Fluorescence was reported as percentage change in the slope of the signal measured at 20-40 min (treatment) over 1-10 min (pre-treatment).

[2] = system: cTnI-G203S mice; experiment: Myocardial fibrosis, Masson's Trichrome collagen volume fraction; type: in vivo, mouse; details: 5 μM, 3×/wk/5 wk from 20 weeks of age; versus cTnI-G203S AID(S)-TAT; FIG. 14
Description: Following completion of treatment regimes, mouse hearts were extracted and prepared for Masson's Trichchrome staining based on previously described methods with minor modifications (Van De Vlekkert D, Machado E, d'Azzo A. Analysis of Generalized Fibrosis in Mouse Tissue Sections with Masson's Trichrome Staining. Bio Protoc. 2020; 10(10):e3629). Hearts were washed in PBS and fixed overnight in 10% buffered formalin saline (FSAL-5L; Hurst Scientific, AUS). After fixation, hearts were washed 3×10 min in PBS and incubated overnight in 30% sucrose solution (in PBS). […]
To observe the levels of cardiac fibrosis in mice, a minimum of 15 sections of microscopic fields for each animal were selected randomly for histological analysis. Images of heart sections were obtained using a Nikon upright light microscope (DS-Qi2, Japan) at 20× magnification and analysed using ImageJ (NIH). […]
Here we assessed the efficacy of treating 20-week-old pre-hypertrophic cTnI-G203S mice with 5 μM AID-TAT variant peptides (3×/wk/5 wk) on the development and progression of fibrosis. […] Images were acquired using a Nikon Upright Microscope and collagen volume fraction (%) was determined using ImageJ colour thresholding. […] Values reported as mean±SEM; P values compared with cTnI-G203S AID(S)-TAT as determined by the Kruskal-Wallis test.

## AIDP7-TAT: QQQEEDLKGYLDWITQAE with TAT sequence
[1]
  H2O2 induced superoxide production (DHE): reduced the generation of superoxide in a statistically significant manner
[2]
  left ventricular posterior wall collagen volume fraction (CVF, %): significantly decreased

Source: patent publication US20240158447A1, “PEPTIDES FOR USE IN THE TREATMENT OR PREVENTION OF MYOCARDIAL DAMAGE” (THE UNIVERSITY OF WESTERN AUSTRALIA, priority 2020, published 2024)
